From PubChem BioAssay AID256 (DTP/NCI, 2004)
“And” between values parts separate entries of the source, which are not always exact repeats. Equal values may be shown once. Inconclusive results and toxic doses are left out. The calls were made as follows: active = survival T/C of 150% or more; inactive = T/C below 125% in these data.

Tested on: CD2F1 mice, L1210 leukemia ip, survival T/C
Test: NCI In Vivo Anticancer Drug Screen. Data for tumor model L1210 Leukemia (intraperitoneal) in CD2F1 (CDF1) mice
Conditions: higher = longer survival
Method in brief: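 Compound-dosed mice with transplantable tumor versus matched vehicle controls; endpoint ratio T/C reported.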

[1] = endpoint: mean survival time, dose: 25.0 mg/kg/injection, schedule: Q04DX003 (ip), vehicle: saline with Tween-80
[2] = endpoint: mean survival time, dose: 50.0 mg/kg/injection, schedule: Q04DX003 (ip), vehicle: saline with Tween-80
[3] = endpoint: mean survival time, dose: 100.0 mg/kg/injection, schedule: Q04DX003 (ip), vehicle: saline
[4] = endpoint: mean survival time, dose: 200.0 mg/kg/injection, schedule: Q04DX003 (ip), vehicle: saline
[5] = endpoint: mean survival time, dose: 75.0 mg/kg/injection, schedule: Q01DX001 (ip), vehicle: saline
[6] = endpoint: mean survival time, dose: 150.0 mg/kg/injection, schedule: Q01DX001 (ip), vehicle: saline
[7] = endpoint: mean survival time, dose: 100.0 mg/kg/injection, schedule: Q04DX002 (ip), vehicle: saline with Tween-80
[8] = endpoint: mean survival time, dose: 200.0 mg/kg/injection, schedule: Q04DX002 (ip), vehicle: saline with Tween-80
[9] = endpoint: mean survival time, dose: 100.0 mg/kg/injection, schedule: Q04DX003 (ip), vehicle: saline with Tween-80
[10] = endpoint: mean survival time, dose: 200.0 mg/kg/injection, schedule: Q04DX003 (ip), vehicle: saline with Tween-80
[11] = endpoint: mean survival time, dose: 25.0 mg/kg/injection, schedule: Q01DX009 (ip), vehicle: saline with Tween-80
[12] = endpoint: mean survival time, dose: 400.0 mg/kg/injection, schedule: Q04DX003 (ip), vehicle: saline with Tween-80
[13] = endpoint: mean survival time, dose: 100.0 mg/kg/injection, schedule: Q01DX009 (ip), vehicle: saline with Tween-80
[14] = endpoint: mean survival time, dose: 200.0 mg/kg/injection, schedule: Q01DX009 (ip), vehicle: saline with Tween-80
[15] = endpoint: mean survival time, dose: 400.0 mg/kg/injection, schedule: Q01DX009 (ip), vehicle: saline with Tween-80
[16] = endpoint: mean survival time, dose: 6.25 mg/kg/injection, schedule: Q01DX009 (ip), vehicle: saline

Measured: T/C

Cc1ccnc(N)c1.[Cl-].[Cl-].[Cl-].[Cl-].[Pt+2]
inactive: [1] 106 % of control | [2] 101 % of control

O=C1CCC(=O)N1CO
inactive: endpoint: mean survival time, dose: 100.0 mg/kg/injection, schedule: Q01DX009 (ip), vehicle: saline 102 % of control | [3] 106 % of control | endpoint: mean survival time, dose: 200.0 mg/kg/injection, schedule: Q01DX009 (ip), vehicle: saline 109 % of control | [4] 101 % of control | endpoint: mean survival time, dose: 400.0 mg/kg/injection, schedule: Q01DX009 (ip), vehicle: saline 111 % of control | endpoint: mean survival time, dose: 400.0 mg/kg/injection, schedule: Q04DX003 (ip), vehicle: saline 116 % of control

COc1ccc2c(Cc3ccc(O)cc3)cncc2c1O
inactive: [5] 100 % of control | [6] 106 % of control | endpoint: mean survival time, dose: 300.0 mg/kg/injection, schedule: Q01DX001 (ip), vehicle: saline 98 % of control

Cc1onc(-c2ccccc2)c1C1=N/C(=C\c2ccc(N(C)C)cc2)C(=O)O1
inactive: [7] 94 % of control | [8] 113 % of control | endpoint: mean survival time, dose: 400.0 mg/kg/injection, schedule: Q04DX002 (ip), vehicle: saline with Tween-80 90 % of control

CCCCCCCCCCCCCCOc1ccc(Cl)cc1
inactive: [7] 87 % of control | [8] 87 % of control

NC(c1ccccc1)C(N)c1ccccc1 (centres undefined)
inactive: endpoint: mean survival time, dose: 25.0 mg/kg/injection, schedule: Q04DX003 (ip), vehicle: other 102 % of control | endpoint: mean survival time, dose: 50.0 mg/kg/injection, schedule: Q04DX003 (ip), vehicle: other 94 % of control | endpoint: mean survival time, dose: 100.0 mg/kg/injection, schedule: Q04DX003 (ip), vehicle: other 88 % of control

CN1CCN(CCSSCCN2CCN(C)CC2)CC1
inactive: endpoint: mean survival time, dose: 50.0 mg/kg/injection, schedule: Q01DX009 (ip), vehicle: saline sonified 97 % of control | endpoint: mean survival time, dose: 100.0 mg/kg/injection, schedule: Q01DX009 (ip), vehicle: saline sonified 97 % of control | [9] 105 % of control | endpoint: mean survival time, dose: 200.0 mg/kg/injection, schedule: Q01DX009 (ip), vehicle: saline sonified 98 % of control | [10] 100 % of control

O=C1C=CC(=O)C(Br)C1Br (centres undefined)
inactive: endpoint: mean survival time, dose: 37.5 mg/kg/injection, schedule: Q01DX009 (ip), vehicle: saline 93 % of control | endpoint: mean survival time, dose: 37.5 mg/kg/injection, schedule: Q04DX003 (ip), vehicle: saline 95 % of control | [5] 97 % of control | endpoint: mean survival time, dose: 75.0 mg/kg/injection, schedule: Q01DX009 (ip), vehicle: saline 93 % of control | endpoint: mean survival time, dose: 75.0 mg/kg/injection, schedule: Q04DX003 (ip), vehicle: saline 103 % of control | [6] 101 % of control | endpoint: mean survival time, dose: 150.0 mg/kg/injection, schedule: Q01DX009 (ip), vehicle: saline 94 % of control | endpoint: mean survival time, dose: 150.0 mg/kg/injection, schedule: Q04DX003 (ip), vehicle: saline 93 % of control

CN1CCN(c2ccccc2N)CC1
inactive: endpoint: mean survival time, dose: 5.0 mg/kg/injection, schedule: Q01DX009 (ip), vehicle: saline with Tween-80 108 % of control | endpoint: mean survival time, dose: 10.0 mg/kg/injection, schedule: Q01DX009 (ip), vehicle: saline with Tween-80 108 % of control | endpoint: mean survival time, dose: 20.0 mg/kg/injection, schedule: Q01DX009 (ip), vehicle: saline with Tween-80 102 % of control

CC/C(C)=C1\OC(=O)C(C)C(O)C(Cc2cccnc2)NC(=O)C(NC(=O)c2ncccc2O)C(C)OC1=O (centres undefined)
inactive: endpoint: mean survival time, dose: 3.13 mg/kg/injection, schedule: Q01DX009 (ip), vehicle: saline with Tween-80 96 % of control | endpoint: mean survival time, dose: 6.25 mg/kg/injection, schedule: Q01DX009 (ip), vehicle: saline with Tween-80 95 % of control | endpoint: mean survival time, dose: 12.5 mg/kg/injection, schedule: Q01DX009 (ip), vehicle: saline with Tween-80 96 % of control | [11] 96 % of control

CSc1ccccc1C(=O)O
inactive: [9] 102 % of control and 95 % of control | [10] 96 % of control and 101 % of control | [12] 102 % of control and 101 % of control

CC(=O)OC/C(=N\Nc1ccc([N+](=O)[O-])cc1[N+](=O)[O-])c1ccccc1
inactive: endpoint: mean survival time, dose: 3.13 mg/kg/injection, schedule: Q01DX001 (ip), vehicle: saline with Tween-80 107 % of control | endpoint: mean survival time, dose: 6.25 mg/kg/injection, schedule: Q01DX001 (ip), vehicle: saline with Tween-80 94 % of control | endpoint: mean survival time, dose: 100.0 mg/kg/injection, schedule: Q01DX001 (ip), vehicle: saline with Tween-80 86 % of control | endpoint: mean survival time, dose: 400.0 mg/kg/injection, schedule: Q01DX001 (ip), vehicle: saline with Tween-80 90 % of control

Cc1ccc(-c2cc(Cl)c3cc(S(=O)(=O)F)ccc3n2)cc1
inactive: [13] 102 % of control | [9] 104 % of control | [14] 98 % of control | [10] 102 % of control | [15] 90 % of control | [12] 107 % of control

[Cl][Pt+2][Cl].[N-]=C(N)/N=C(\[NH-])N
inactive: endpoint: median survival time, dose: 12.5 mg/kg/injection, schedule: Q04DX003 (ip), vehicle: distilled water + Tween-80 104 % of control | endpoint: median survival time, dose: 25.0 mg/kg/injection, schedule: Q04DX003 (ip), vehicle: distilled water + Tween-80 101 % of control | endpoint: median survival time, dose: 50.0 mg/kg/injection, schedule: Q04DX003 (ip), vehicle: distilled water + Tween-80 101 % of control | endpoint: median survival time, dose: 100.0 mg/kg/injection, schedule: Q04DX003 (ip), vehicle: distilled water + Tween-80 108 % of control | endpoint: median survival time, dose: 200.0 mg/kg/injection, schedule: Q04DX003 (ip), vehicle: distilled water + Tween-80 108 % of control

CC(C)(C)C1CCC(O)(CSc2ccccc2)CC1 (centres undefined)
inactive: [9] 97 % of control | [10] 92 % of control | [12] 92 % of control

N=Cc1c(O)n(C2CCCCC2)c(=O)[nH]c1=O
inactive: [13] 98 % of control | [9] 93 % of control | [14] 94 % of control | [10] 93 % of control | [15] 98 % of control | [12] 91 % of control

Cc1nnnn1C12CC3CC(CC(C3)C1)C2
inactive: endpoint: mean survival time, dose: 9.4 mg/kg/injection, schedule: Q01DX009 (ip), vehicle: saline with Tween-80 94 % of control

CC1NCCOC1c1ccccc1 (centres undefined)
inactive: [3] 100 % of control | [4] 102 % of control

ON=C(CCl)CCl
inactive: endpoint: mean survival time, dose: 1.56 mg/kg/injection, schedule: Q01DX009 (ip), vehicle: saline 96 % of control | endpoint: mean survival time, dose: 3.12 mg/kg/injection, schedule: Q01DX009 (ip), vehicle: saline 96 % of control | [16] 93 % of control

C[N+](C)(CCO)Cc1ccccc1
inactive: [11] 102 % of control | [1] 97 % of control | endpoint: mean survival time, dose: 50.0 mg/kg/injection, schedule: Q01DX009 (ip), vehicle: saline with Tween-80 105 % of control | [2] 100 % of control | [13] 105 % of control | [9] 96 % of control and 101 % of control

COc1ccc(CC(=O)Nc2ccc(OC)c(OC)c2)cc1OC
inactive: endpoint: mean survival time, dose: 12.5 mg/kg/injection, schedule: Q01DX009 (ip), vehicle: water 96 % of control | endpoint: mean survival time, dose: 25.0 mg/kg/injection, schedule: Q01DX009 (ip), vehicle: water 98 % of control | endpoint: mean survival time, dose: 50.0 mg/kg/injection, schedule: Q01DX009 (ip), vehicle: water 96 % of control | endpoint: mean survival time, dose: 100.0 mg/kg/injection, schedule: Q01DX009 (ip), vehicle: water 95 % of control | endpoint: mean survival time, dose: 200.0 mg/kg/injection, schedule: Q01DX009 (ip), vehicle: water 96 % of control

Cc1ccc(C#CP(C#Cc2ccc(C)cc2)C#Cc2ccc(C)cc2)cc1
inactive: endpoint: mean survival time, dose: 1.56 mg/kg/injection, schedule: Q01DX009 (ip), vehicle: saline with Tween-80 92 % of control | endpoint: mean survival time, dose: 3.12 mg/kg/injection, schedule: Q01DX009 (ip), vehicle: saline with Tween-80 96 % of control | [16] 96 % of control | endpoint: mean survival time, dose: 25.0 mg/kg/injection, schedule: Q01DX009 (ip), vehicle: saline 96 % of control

COc1ccc(CCNC(=O)Cc2cc(OC)c(OC)cc2Br)cc1OC
inactive: [9] 94 % of control | [10] 100 % of control | [12] 96 % of control

C1=CC2CC2C1 (centres undefined)
inactive: endpoint: median survival time, dose: 50.0 mg/kg/injection, schedule: Q04DX002 (ip), vehicle: saline with Tween-80 88 % of control | endpoint: median survival time, dose: 100.0 mg/kg/injection, schedule: Q04DX002 (ip), vehicle: saline with Tween-80 88 % of control | endpoint: median survival time, dose: 200.0 mg/kg/injection, schedule: Q04DX002 (ip), vehicle: saline with Tween-80 88 % of control | endpoint: median survival time, dose: 400.0 mg/kg/injection, schedule: Q04DX002 (ip), vehicle: saline with Tween-80 88 % of control
